Data on 26 molecules can be found in patent EP4700018A1, “NAV1.8 INHIBITORS, PREPARATION METHOD THEREFOR AND USE THEREOF” (Shanghai Institute of Materia Medica, Chinese Academy of …, priority 2023, dated 2024).

Series [1] can be described thus: In vivo pharmacokinetics in rats, single intravenous injection or oral gavage. The settings on record: male, SD, plasma, Rat; for Vd: read-out: Vss. On the procedure:
The in vivo pharmacokinetics in rats were evaluated via a single intravenous injection or oral gavage administration in this test example. • 1. Test Methods and Conditions: Male SD rats were fasted overnight and administered a single intravenous dose of 2 mg/kg or 1 mg/kg of the test compound (solvent for Intravenous administration was 5% DMSO/10% Solutol® HS 15/10% EtOH/75% saline, with a dosing volume of 5 mL/kg) and an oral gavage dose of 10 mg/kg or 5 mg/kg of the test compound (solvent for administration was 0.5% CMC-Na, with a dosing volume of 10 mL/kg), respectively. • 2. Sampling Information: Blood samples (0.2 mL) were collected from the retroorbital venous plexus at the designated time points: 0.25, 0.5, 1.0, 2.0, 3.0, 4.0, 6.0, 8.0, and 24 hours before and after dosing (a 5 min sampling point was added for the intravenous administration group), respectively. The samples were placed in EDTA-K2 tubes and centrifuged at 11,000 rpm for 5 minutes. Plasma was separated and frozen at -20°C. • 3. Assay Information: LC/MS/MS was used to determine the concentration of the parent drug in rat/mouse plasma following intravenous and oral gavage administration of the test compound. Pharmacokinetic parameters in rat/mouse plasma were calculated for both administration routes, and the bioavailability of each compound in rats was also calculated. Table 5: Intravenous Pharmacokinetic Information of Representative Compounds

The target of series [2] is human Nav1.8 sodium channel (Homo sapiens, UniProt Q9Y5Y9). Briefly: Blocking activity on sodium channel 1.8 (Nav1.8), whole-cell manual patch clamp. The class given is cell-based. The settings on record: for inhibition at 0.001 µM: read-out: inhibition Percent @1 nM, 1 nM compound; for inhibition at 0.01 µM: read-out: inhibition Percent @10 nM, 10 nM compound; for inhibition at 0.03 µM: read-out: inhibition Percent @30 nM, 30 nM compound; for inhibition Percent @1 nM: 1 nM compound, 0.001 µM.
Sequence of human Nav1.8 sodium channel (Q9Y5Y9 whole entry): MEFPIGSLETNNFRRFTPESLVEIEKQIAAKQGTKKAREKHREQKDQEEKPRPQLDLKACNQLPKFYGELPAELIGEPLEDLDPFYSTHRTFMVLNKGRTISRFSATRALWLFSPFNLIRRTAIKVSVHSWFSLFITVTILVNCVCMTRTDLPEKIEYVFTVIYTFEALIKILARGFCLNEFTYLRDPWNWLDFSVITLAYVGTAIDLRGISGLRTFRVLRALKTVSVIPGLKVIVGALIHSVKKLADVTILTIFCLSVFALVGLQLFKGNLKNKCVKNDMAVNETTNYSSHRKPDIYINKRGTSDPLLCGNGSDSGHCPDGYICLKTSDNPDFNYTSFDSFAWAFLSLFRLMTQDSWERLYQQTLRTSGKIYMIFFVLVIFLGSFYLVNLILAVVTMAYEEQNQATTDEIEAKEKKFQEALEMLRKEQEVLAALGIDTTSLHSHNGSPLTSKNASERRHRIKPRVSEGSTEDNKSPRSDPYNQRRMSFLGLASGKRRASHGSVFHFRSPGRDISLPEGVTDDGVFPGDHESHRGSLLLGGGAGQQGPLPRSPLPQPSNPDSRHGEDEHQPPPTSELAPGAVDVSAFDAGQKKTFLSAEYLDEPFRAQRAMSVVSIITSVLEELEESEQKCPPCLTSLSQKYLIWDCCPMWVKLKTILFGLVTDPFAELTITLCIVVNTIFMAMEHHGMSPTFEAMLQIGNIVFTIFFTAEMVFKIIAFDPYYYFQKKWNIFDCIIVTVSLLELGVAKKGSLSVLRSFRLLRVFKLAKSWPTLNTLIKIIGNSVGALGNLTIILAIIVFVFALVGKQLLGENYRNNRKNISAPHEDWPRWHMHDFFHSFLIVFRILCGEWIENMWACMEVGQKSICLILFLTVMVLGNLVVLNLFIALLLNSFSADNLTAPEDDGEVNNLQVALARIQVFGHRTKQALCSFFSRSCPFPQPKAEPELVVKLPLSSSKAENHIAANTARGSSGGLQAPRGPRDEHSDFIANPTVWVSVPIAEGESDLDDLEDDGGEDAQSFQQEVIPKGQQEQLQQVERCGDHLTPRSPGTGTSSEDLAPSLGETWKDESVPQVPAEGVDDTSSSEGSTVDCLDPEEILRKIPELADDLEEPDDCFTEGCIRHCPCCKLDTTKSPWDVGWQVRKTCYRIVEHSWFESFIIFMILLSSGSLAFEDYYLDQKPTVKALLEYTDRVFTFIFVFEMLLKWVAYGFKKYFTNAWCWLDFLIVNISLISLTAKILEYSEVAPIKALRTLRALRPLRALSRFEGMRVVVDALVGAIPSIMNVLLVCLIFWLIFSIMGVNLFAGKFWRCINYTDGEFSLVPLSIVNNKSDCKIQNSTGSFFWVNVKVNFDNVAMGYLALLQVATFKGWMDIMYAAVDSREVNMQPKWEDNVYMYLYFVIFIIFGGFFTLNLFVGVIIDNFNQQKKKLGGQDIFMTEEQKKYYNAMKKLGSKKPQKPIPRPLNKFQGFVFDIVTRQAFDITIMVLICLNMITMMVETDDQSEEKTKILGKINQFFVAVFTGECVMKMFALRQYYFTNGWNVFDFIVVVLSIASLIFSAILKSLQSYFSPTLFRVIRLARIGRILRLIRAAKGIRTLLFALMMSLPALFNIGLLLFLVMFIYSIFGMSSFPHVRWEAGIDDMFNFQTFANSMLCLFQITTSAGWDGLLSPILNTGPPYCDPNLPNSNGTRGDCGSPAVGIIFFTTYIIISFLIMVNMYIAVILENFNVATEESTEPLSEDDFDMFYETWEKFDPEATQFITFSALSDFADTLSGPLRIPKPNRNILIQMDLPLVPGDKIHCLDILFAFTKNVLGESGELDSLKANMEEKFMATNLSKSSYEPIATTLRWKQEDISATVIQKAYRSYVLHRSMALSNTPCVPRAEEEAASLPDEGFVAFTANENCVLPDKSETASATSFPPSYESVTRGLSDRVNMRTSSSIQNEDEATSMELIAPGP

Where [3] appears, read: intravenous, single dose 2 mg/kg or 1 mg/kg (figure not given).

The AUC(0-t) is exposure summed from dosing to a finite time, without extrapolation to infinity. By half-life is commonly meant the time needed for the level to fall by half in the phase considered. High values mean slow loss, low ones fast loss. The Cmax is the highest concentration seen after dosing. As a reminder, the Tmax is the time from dosing to the highest level. As usually defined, the bioavailability is the share of a dose that reaches the circulation, judged against a reference dose that is usually intravenous. Low values mean little systemic uptake, high ones much systemic uptake. `Cc1nc(N2CCCC(F)(F)CC2)c(C(=O)Nc2ccc(F)c(C(N)=NC#N)c2)cc1Cl` [Compound I-3, 5-chloro-N-(3-(N'-cyanoamidino)-4-fluorophenyl)-2-(4,4-difluoroazepan-1-yl)-6-meth ylnicotinamide]: in series [1] (setting [3]), the exposure AUC(0-t) turned out to be 567 ng·h/mL, the clearance was found to be 29.7 mL/min/kg, the half-life was 0.325 h and the Vd is 0.442 L/kg. Further, in series [1] (oral gavage, 5mg/kg), the AUC(0-t) came to 1770 ng·h/mL, the highest level (Cmax) was 381 ng/mL, the Tmax stood at 6 h and the half-life was 2.08 h. In series [1] (oral gavage, 5mg/kg), this molecule registered a bioavailability of 62.4%.

The term inhibition denotes the share of the control response that was lost under treatment. Turning to `Cc1ccc(NC(=O)c2cc(Cl)c(C)nc2N2CCCC(F)(F)CC2)cc1C(=N)N` [Compound I-8, N-(3-amidino-4-methylphenyl)-5-chloro-2-(4,4-difluoroazepan-1-yl)-6-methylnicotinamide], in series [2], the inhibition at 0.001 µM stood at 51%.

`Cc1nc(N2CCCC(F)(F)CC2)c(C(=O)Nc2ccnc(C(N)=NO)c2)cc1Cl` [Compound I-15, 5-chloro-2-(4,4-difluoroazepan-1-yl)-N-(2-(N'-hydroxyamidinoimino)pyridin-4-yl)-6-m ethylnicotinamide]: the inhibition at 0.001 µM in series [2] is 66%.

On to `C#Cc1cc(C(=O)Nc2ccc(F)c(C(N)=NO)c2)c(N2CCCC(F)(F)CC2)nc1C` [Compound I-26, 2-(4,4-difluoroazepan-1-yl)-5-ethynyl-N-(4-fluoro-3-(N'-hydroxyamidino)phenyl)-6-m ethylnicotinamide], for which the inhibition at 0.01 µM in series [2] came to 76%.

On to `NC(=NO)c1cc(NC(=O)c2cc(Cl)c(Cl)cc2N2CCCC(F)(F)CC2)ccc1F` [Compound I-47, 4,5-dichloro-2-(4,4-difluoroazepan-1-yl)-N-(4-fluoro-3-(N'-hydroxyamidino)phenyl)be nzamide], for which the inhibition at 0.01 µM in series [2] is 80%.

As to `NC(=NO)c1cc(NC(=O)c2cc(Cl)c(N3CCCC3)nc2N2CCCC(F)(F)CC2)ccc1F` [Compound I-46, 5-chloro-2-(4,4-difluoroazepan-1-yl)-N-(4-fluoro-3-(N'-hydroxyamidino)phenyl)-6-(pyrrolidinyl)nicotinamide], the inhibition at 0.01 µM in series [2] was 50%.

`NC(=NO)c1cc(NC(=O)c2c(N3CCCC(F)(F)CC3)ccc(C(F)(F)F)c2Cl)ccc1F` [Compound I-32, 2-chloro-6-(4,4-difluoroazepan-1-yl)-N-(4-fluoro-3-(N'-hydroxyamidino)phenyl)-3-(trifluoromethyl)benzamide]: the inhibition at 0.001 µM in series [2] amounted to 50%.

Turning to `[2H]Cc1nc(N2CCCC(F)(F)CC2)c(C(=O)Nc2ccc(F)c(C(N)=NO)c2)cc1Cl` [Compound I-42, 5-chloro-2-(4,4-difluoroazepan-1-yl)-N-(4-fluoro-3-(N'-hydroxyamidino)phenyl)-6-deu teromethylnicotinamide], the inhibition at 0.001 µM in series [2] worked out at 65%.

With `N=C(N)c1cc(NC(=O)c2cc(Cl)c(C(F)F)nc2C2CCCC(F)(F)CC2)ccc1F` (stereo not drawn) [Compound I-39, N-(3-amidino-4-fluorophenyl)-5-chloro-2-(4,4-difluorocycloheptan-1-yl)-6-difluorome thylnicotinamide], the inhibition at 0.001 µM in series [2] stood at 51%.

As to `NC(=NO)c1cc(NC(=O)c2cc(Cl)c(CF)nc2N2CCCC(F)(F)CC2)ccc1F` [Compound I-44, 5-chloro-2-(4,4-difluoroazepan-1-yl)-N-(4-fluoro-3-(N'-hydroxyamidino)phenyl)-6-(fluoromethyl)nicotinamide], the inhibition at 0.001 µM in series [2] is 32%.

Turning to `Cc1nc(N2CCCC(F)(F)CC2)c(C(=O)Nc2ccc(F)c(C(=O)NC(=N)N)c2)cc1Cl` [Compound I-17, N-(3-(amidinocarbamoyl)-4-fluorophenyl)-5-chloro-2-(4,4-difluoroazepan-1-yl)-6-met hylnicotinamide], the inhibition at 0.03 µM in series [2] came to 99%.

As to `Cc1nc(N2CCC(F)(F)C(C)C2)c(C(=O)Nc2ccc(F)c(C(N)=NO)c2)cc1Cl` (single isomer, unassigned) [Compound I-41-P2, 5-chloro-2-(4,4-difluoro-3-methylpiperidin-1-yl)-N-(4-fluoro-3-(N'-hydroxyamidino)phenyl)-6-(methyl)nicotinamide], the “inhibition Percent @1 nM” value in series [2] was 35%.

With `Cc1nc(N2CCCC(F)(F)CC2)c(C(=O)Nc2ccc(F)c(NC(=N)N)c2)cc1Cl` [Compound I-19, 5-chloro-2-(4,4-difluoroazepan-1-yl)-N-(4-fluoro-3-guanidinophenyl)-6-methylnicotin amide], the inhibition at 0.001 µM in series [2] is 49%.

For the molecule `Cc1ccc(C(=O)Nc2ccc(F)c(C(N)=NO)c2)c(N2CCCC(F)(F)CC2)n1` [Compound I-29, 2-(4,4-difluoroazepan-1-yl)-N-(4-fluoro-3-(N'-hydroxyamidino)phenyl)-6-methylnicoti namide], the inhibition at 0.01 µM in series [2] came out at 57%.

As for `O=C(Nc1ccc2c(c1)S(=O)(=O)NC2)c1c(N2CCCC(F)(F)CC2)ccc(C(F)(F)F)c1Cl` [Compound I-31, 2-chloro-6-(4,4-difluoroazepan-1-yl)-N-(1,1-dioxo-2,3-dihydrobenzisothiazol-6-yl)-3-tr ifluoromethylbenzamide], the inhibition at 0.001 µM in series [2] was 46%.

As for `NC(=NO)c1cccc(NC(=O)c2cc(Cl)c(C(F)(F)F)cc2N2CCCC(F)(F)CC2)c1` [Compound I-48, 5-chloro-2-(4,4-difluoroazepan-1-yl)-N-(3-(N'-hydroxyamidino)phenyl)-4-trifluoromet hylbenzamide], the inhibition at 0.01 µM in series [2] was found to be 77%.

On to `COc1ccc(NC(=O)c2cc(Cl)c(C)nc2N2CCCC(F)(F)CC2)cc1C(=N)N` [Compound I-10, N-(3-amidino-4-methoxyphenyl)-5-chloro-2-(4,4-difluoroazepan-1-yl)-6-methylnicoti namide], for which the inhibition at 0.001 µM in series [2] worked out at 32%.

Regarding `CC1CN(c2nc(C(F)(F)F)c(Cl)cc2C(=O)Nc2ccc(F)c(C(N)=NO)c2)CCC1(F)F` (single isomer, unassigned) [Compound I-40-P2, 5-chloro-2-(4,4-difluoro-3-methylpiperidin-1-yl)-N-(4-fluoro-3-(N'-hydroxyamidino)phenyl)-6-(trifluoromethyl)nicotinamide], the “inhibition Percent @1 nM” value in series [2] is 63%.

With `Cc1nc(N2CCCC(F)(F)CC2)c(C(=O)Nc2cccc(C(N)=NO)c2)cc1Cl` [Compound I-11, 5-chloro-2-(4,4-difluoroazepan-1-yl)-N-(3-(N'-hydroxyamidino)phenyl)-6-methylnicoti namide], the inhibition at 0.001 µM in series [2] was 90%.

Consider `Cc1nc(N2CCCC(F)(F)CC2)c(C(=O)Nc2cccc(C(=O)NC(=N)N)c2)cc1Cl` [Compound I-18, N-(3-(amidinocarbamoyl)phenyl)-5-chloro-2-(4,4-difluoroazepan-1-yl)-6-methylnicoti namide], for which the inhibition at 0.03 µM in series [2] was found to be 90%.

On to `NC(=NO)c1cc(NC(=O)c2cc(Cl)c(C(F)F)nc2N2CCCC(F)(F)CC2)ccc1F` [Compound I-38, 5-chloro-2-(4,4-difluoroazepan-1-yl)-6-(difluoromethyl)-N-(4-fluoro-3-(N'-hydroxyamidino)phenyl)nicotinamide], for which the inhibition at 0.001 µM in series [2] came to 33%.

Consider `Cc1cc(F)ccc1Oc1cc(C(F)(F)F)ccc1C(=O)Nc1cc[nH]c(=O)c1` [VX-150, reference compound], for which, in series [1] (setting [3]), the AUC(0-t) stood at 2510 ng·h/mL, the clearance was determined as 13.9 mL/min/kg, the half-life is 1.08 h and the Vd was 1.09 L/kg. Besides, in series [1] (oral gavage, 10mg/kg), the AUC(0-t) came to 3810 ng·h/mL, the highest level (Cmax) was 723 ng/mL, the Tmax is 2 h and the half-life was 2.88 h. This molecule showed a bioavailability in series [1] (oral gavage, 10mg/kg) of 30.4%.

Consider `Cc1nc(N2CCCC(F)(F)CC2)c(C(=O)Nc2ccc(F)c(C(=O)O)c2)cc1Cl` [Compound I7-b, 5-(5-chloro-2-(4,4-difluoroazepan-1-yl)-6-methylnicotinamido)-2-fluorobenzoic acid], for which the inhibition at 0.03 µM in series [2] came out at 33%.

For the molecule `Cc1ccc(NC(=O)c2cc(Cl)c(C)nc2N2CCCC(F)(F)CC2)cc1C(N)=NO` [Compound I-7, 5-chloro-2-(4,4-difluoroazepan-1-yl)-N-(3-(N'-hydroxyamidino)-4-methylphenyl)-6-me thylnicotinamide], the inhibition at 0.01 µM in series [2] came out at 83%.

Take `Cc1nc(N2CCCC(F)(F)CC2)c(C(=O)Nc2ccc(C(N)=NO)cc2)cc1Cl` [Compound I-13, 5-chloro-2-(4,4-difluoroazepan-1-yl)-N-(4-(N'-hydroxyamidino)phenyl)-6-methylnicoti namide]: in series [2], the inhibition at 0.001 µM is 85%.

On to `N#CN=C(N)c1cc(NC(=O)c2cc(Cl)c(C(F)(F)F)nc2N2CCCC(F)(F)CC2)ccc1F` [Compound I-37, 5-chloro-N-(3-(N'-cyanoamidino)-4-fluorophenyl)-2-(4,4-difluoroazepan-1-yl)-6-triflu oromethylnicotinamide], for which the inhibition at 0.01 µM in series [2] worked out at 62%.
